Assay results: patent US9149038B2, “4-amino-6-(heterocyclic)picolinates and 6-amino-2-(heterocyclic)pyrimidine-4-carboxylates and their use as herbicides” (Dow AgroSciences LLC, priority 2013, dated 2015)
Where two headings read alike, the source gives them in different places.

Tests used:
[1] = test system: Key Broadleaf Weed and Crop Species; experiment: Post-Emergent Test II: postemergent herbicidal activity, visual rating after 14 d (Table 7); type: in vivo; settings: post-emergence, 336 h; for pest or weed control at 35 g/ha: 35 g ai/ha; for pest or weed control at 70 g/ha: 70 g ai/ha; for pest or weed control at 140 g/ha: 140 g ai/ha
How it was run: (§1)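 Visual scoring at 14 d, 0 (no injury) to 100 (complete kill), relative to untreated plants. Postemergent overhead track-sprayer application, 187 L/ha, at a top rate plus serial ½×–1/16× rates, to plants grown 7–21 d at about 23–29° C day under a 15 h photoperiod, then subirrigated.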

[2] = test system: Key Grass and Sedge Weeds as well as Grass Crops; experiment: Post-Emergent Test II: postemergent herbicidal activity, visual rating after 14 d (Table 8); type: in vivo; settings: post-emergence, 336 h; for pest or weed control at 35 g/ha: 35 g ai/ha; for pest or weed control at 70 g/ha: 70 g ai/ha; for pest or weed control at 140 g/ha: 140 g ai/ha
How it was run: as §1

[3] = ABUTH: velvetleaf (Abutilon theophrasti), read-out: Visual Growth Reduction (%) 14 Days After Application ABUTH
[4] = AMARE: redroot pigweed (Amaranthus retroflexus), read-out: Visual Growth Reduction (%) 14 Days After Application AMARE
[5] = BRSNN: oilseed rape, canola (Brassica napus), read-out: Visual Growth Reduction (%) 14 Days After Application BRSNN
[6] = CHEAL: lambsquarters (Chenopodium album), read-out: Visual Growth Reduction (%) 14 Days After Application CHEAL
[7] = EPHHL: wild poinsettia (Euphorbia heterophylla), read-out: Visual Growth Reduction (%) 14 Days After Application EPHHL
[8] = HELAN: sunflower (Helianthus annuus), read-out: Visual Growth Reduction (%) 14 Days After Application HELAN
[9] = barnyardgrass (Echinochloa crus-galli), read-out: Visual Growth Reduction (%) 14 Days After Application, ECHCG
[10] = giant foxtail (Setaria faberi), read-out: Visual Growth Reduction (%) 14 Days After Application, SETFA
[11] = rice (Oryza sativa), read-out: Visual Growth Reduction (%) 14 Days After Application, ORYSA
[12] = wheat, spring (Triticum aestivum), read-out: Visual Growth Reduction (%) 14 Days After Application, TRZAS
[13] = yellow nutsedge (Cyperus esculentus), read-out: Visual Growth Reduction (%) 14 Days After Application, CYPES
[14] = maize, corn (Zea mays), read-out: Visual Growth Reduction (%) 14 Days After Application, ZEAMX

Structure (SMILES) | pest or weed control at 35 g/ha [1, 3] | pest or weed control at 70 g/ha [1, 3] | pest or weed control at 140 g/ha [1, 3] | pest or weed control at 35 g/ha [1, 4] | pest or weed control at 70 g/ha [1, 4] | pest or weed control at 140 g/ha [1, 4] | pest or weed control at 35 g/ha [1, 5] | pest or weed control at 70 g/ha [1, 5] | pest or weed control at 140 g/ha [1, 5] | pest or weed control at 35 g/ha [1, 6] | pest or weed control at 70 g/ha [1, 6] | pest or weed control at 140 g/ha [1, 6] | pest or weed control at 35 g/ha [1, 7] | pest or weed control at 70 g/ha [1, 7] | pest or weed control at 140 g/ha [1, 7] | pest or weed control at 35 g/ha [1, 8] | pest or weed control at 70 g/ha [1, 8] | pest or weed control at 140 g/ha [1, 8] | pest or weed control at 35 g/ha [2, 9] | pest or weed control at 70 g/ha [2, 9] | other results
COC(=O)c1nc(-c2cccc3c2OC(F)(F)O3)cc(N)c1Cl [Compound 84] | 45 to 59% | 60 to 74% | 75 to 84% | 95 to 100% | 95 to 100% | 95 to 100% | 60 to 74% | 75 to 84% | 85 to 94% | 85 to 94% | 85 to 94% | 95 to 100% | 0 to 29% | 0 to 29% | 0 to 29% | 0 to 29% | 30 to 44% | 30 to 44% | 0 to 29% | 0 to 29% | pest or weed control at 140 g/ha [2, 9]: 0 to 29%; pest or weed control at 35 g/ha [2, 10]: 0 to 29%; pest or weed control at 70 g/ha [2, 10]: 0 to 29%; pest or weed control at 140 g/ha [2, 10]: 0 to 29%; pest or weed control at 35 g/ha [2, 11]: 0 to 29%; pest or weed control at 70 g/ha [2, 11]: 0 to 29%; pest or weed control at 140 g/ha [2, 11]: 0 to 29%; pest or weed control at 35 g/ha [2, 12]: 0 to 29%; pest or weed control at 70 g/ha [2, 12]: 0 to 29%; pest or weed control at 140 g/ha [2, 12]: 0 to 29%; pest or weed control at 35 g/ha [2, 13]: 0 to 29%; pest or weed control at 70 g/ha [2, 13]: 0 to 29%; pest or weed control at 140 g/ha [2, 13]: 0 to 29%
COC(=O)c1nc(-c2ccc(Cl)c3c2OC(F)(F)O3)cc(N)c1Cl [Compound 86] | 75 to 84% | 85 to 94% | 85 to 94% | 95 to 100% | 95 to 100% | 95 to 100% | 75 to 84% | 75 to 84% | 85 to 94% | 95 to 100% | 95 to 100% | 95 to 100% | 0 to 29% | 0 to 29% | 0 to 29% | 75 to 84% | 85 to 94% | 85 to 94% | 0 to 29% | 0 to 29% | pest or weed control at 140 g/ha [2, 9]: 0 to 29%; pest or weed control at 35 g/ha [2, 10]: 0 to 29%; pest or weed control at 70 g/ha [2, 10]: 0 to 29%; pest or weed control at 140 g/ha [2, 10]: 0 to 29%; pest or weed control at 35 g/ha [2, 14]: 85 to 94%; pest or weed control at 70 g/ha [2, 14]: 85 to 94%; pest or weed control at 140 g/ha [2, 14]: 95 to 100%; pest or weed control at 35 g/ha [2, 11]: 0 to 29%; pest or weed control at 70 g/ha [2, 11]: 0 to 29%; pest or weed control at 140 g/ha [2, 11]: 0 to 29%; pest or weed control at 35 g/ha [2, 12]: 0 to 29%; pest or weed control at 70 g/ha [2, 12]: 0 to 29%; pest or weed control at 140 g/ha [2, 12]: 0 to 29%; pest or weed control at 35 g/ha [2, 13]: 60 to 74%; pest or weed control at 70 g/ha [2, 13]: 60 to 74%; pest or weed control at 140 g/ha [2, 13]: 60 to 74%
Nc1cc(-c2ccc(Cl)c3c2OC(F)(F)O3)nc(C(=O)O)c1Cl [Compound 87] | 75 to 84% | 85 to 94% | 85 to 94% | 95 to 100% | 95 to 100% | 95 to 100% | 60 to 74% | 75 to 84% | 85 to 94% | 95 to 100% | 95 to 100% | 95 to 100% | 0 to 29% | 0 to 29% | 0 to 29% | 75 to 84% | 75 to 84% | 75 to 84% | 0 to 29% | 0 to 29% | pest or weed control at 140 g/ha [2, 9]: 0 to 29%; pest or weed control at 35 g/ha [2, 10]: 0 to 29%; pest or weed control at 70 g/ha [2, 10]: 0 to 29%; pest or weed control at 140 g/ha [2, 10]: 0 to 29%; pest or weed control at 35 g/ha [2, 14]: 0 to 29%; pest or weed control at 70 g/ha [2, 14]: 0 to 29%; pest or weed control at 140 g/ha [2, 14]: 0 to 29%; pest or weed control at 35 g/ha [2, 11]: 0 to 29%; pest or weed control at 70 g/ha [2, 11]: 0 to 29%; pest or weed control at 140 g/ha [2, 11]: 0 to 29%; pest or weed control at 35 g/ha [2, 12]: 0 to 29%; pest or weed control at 70 g/ha [2, 12]: 0 to 29%; pest or weed control at 140 g/ha [2, 12]: 0 to 29%; pest or weed control at 35 g/ha [2, 13]: 0 to 29%; pest or weed control at 70 g/ha [2, 13]: 0 to 29%; pest or weed control at 140 g/ha [2, 13]: 0 to 29%
